Measurements published in patent publication US5047431A, “1,1,2-triphenylbut-1-ene derivatives” (Klinge Pharma GmbH & Co., priority 1980, dated 1991).
Entries after “also recorded” stand apart in the source; their conditions may differ.

What was measured:
[1] = background art; cited from earlier work
estradiol receptor = target: T1, estradiol receptor (Oryctolagus cuniculus, UniProt G1SML6); assay: Binding affinity to the estradiol receptor (displacement of [3H]-estradiol from uterus cytosol); parameters: species or system rabbit (New Zealand rabbits); details: uterus cytosol of prepuberal rabbits, 18 hours at 4° C., 2.5×10^-9 M [3H]-estradiol; read-out: ED50% (concentration of the substance which replaces 50% [3H]-estradiol from the estradiol receptor)
T1 construct: The uterus cytosol of female, prepuberal white rabbits; from tissue; host or cells: uterus cytosol of female prepuberal New Zealand white rabbits
T1 sequence (G1SML6 1-598): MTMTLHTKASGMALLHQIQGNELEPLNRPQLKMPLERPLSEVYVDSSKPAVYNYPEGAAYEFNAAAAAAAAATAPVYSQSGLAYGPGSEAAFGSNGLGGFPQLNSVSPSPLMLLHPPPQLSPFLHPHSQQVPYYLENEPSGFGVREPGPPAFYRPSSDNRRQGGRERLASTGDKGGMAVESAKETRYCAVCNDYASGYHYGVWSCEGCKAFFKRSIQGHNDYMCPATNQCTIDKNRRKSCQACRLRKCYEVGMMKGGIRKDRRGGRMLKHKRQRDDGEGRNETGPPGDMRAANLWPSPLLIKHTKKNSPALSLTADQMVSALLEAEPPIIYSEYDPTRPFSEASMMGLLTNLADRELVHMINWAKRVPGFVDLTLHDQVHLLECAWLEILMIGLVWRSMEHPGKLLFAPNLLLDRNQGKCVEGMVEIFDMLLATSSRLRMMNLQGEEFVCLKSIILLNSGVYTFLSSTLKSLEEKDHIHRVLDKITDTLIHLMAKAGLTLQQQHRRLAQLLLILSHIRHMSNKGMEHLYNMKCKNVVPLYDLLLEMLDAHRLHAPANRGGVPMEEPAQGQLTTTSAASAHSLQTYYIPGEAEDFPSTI
Method: The determination of the binding affinity to the estradiol receptor was made using rabbit uterus cytosol.
The binding affinity to the estradiol receptor was measured according to the method of N. Devleeschouwer, G. Leclercq, A. Danguy and J.C. Heuson [Europ.
H]-estradiol from the estradiol receptor.

[2] = tested on: 7,12-dimethylbenz(a)anthracene-induced mammary tumor; assay: Inhibitory effect on the 7,12-dimethylbenz(a)anthracene-induced mammary tumor; type: in vivo, female Sprague-Dawley rat (Hanover breed); details: compared with tamoxifen under the same test conditions
[3] = tested on: hormone-dependent mammary; details: background art; cited from earlier work

Row | SMILES | IC50 (estradiol receptor) [nM] | anti-estrogenic activity (in words) [1] | inhibitory activity on the mammary tumor (in words) [2] | therapy of hormone-dependent mammary tumors (in words) [3]
1 | CC/C(=C(\c1ccc(O)cc1)c1ccc(OCCN(C)C)cc1)c1ccccc1 [4-hydroxytamoxifen] |  | antiestrogenic effect comparable to tamoxifen |  | 
2 | CC/C(=C(\c1ccccc1)c1ccc(OCCN(C)C)cc1)c1ccccc1 [Tamoxifen, (Z)-1-[4'-(2-dimethylaminoethoxy)phenyl]-1,2-diphenylbut-1-ene] |  | marked anti-estrogenic activity |  | already proved successful in the therapy of hormone-dependent mammary

The next lines start with results.

Row | IC50 (estradiol receptor) [nM] | SMILES | anti-estrogenic activity (in words) [1] | inhibitory activity on the mammary tumor (in words) [2] | therapy of hormone-dependent mammary tumors (in words) [3]
3 | 65 | CC/C(=C(/c1ccc(OCCN(CC)CC)cc1)c1cccc(O)c1)c1ccccc1 [Compound 2, (E)-1-[4'-(2-Diethylaminoethoy)phenyl]-1-(3'-hydroxyphenyl)-2-phenylbut-1-ene] |  |  | 
4 | 37 | CC/C(=C(/c1ccc(OCCNC)cc1)c1cccc(O)c1)c1ccccc1 [Compound 3, (E)-1-(3'-Hydroxyphenyl)-1-[4'-(2-methylaminoethoxy)phenyl]-2-phenylbut-1-ene] |  |  | 
5 | 24 | CC/C(=C(/c1ccc(OCCN(C)C)cc1)c1cccc(O)c1)c1ccccc1 [Compound 1, (E)-1-[4'-(2-Dimethylaminoethoxy)phenyl]-1-(3-hydroxyphenyl)-2-phenylbut-1-ene] |  | above the activity of tamoxifen; also recorded: clearly superior to tamoxifen in the inhibitory activity on the tumor | 
